The values that follow come from US10385085B2, “Crystal forms of sialic acid or salt or solvate thereof” (Ultragenyx Pharmaceutical Inc., priority 2015, dated 2019).

Several values for one entry are separate records, joined by “and”; a condition that tells them apart may be missing. Equal entries are not always repeated.

Holding throughout (type): physicochemical
The nature of data set [1]: 7 day stress stability, physical form by XRPD. How it is done: XRPD analysis was carried out on a Panalytical X′pert Pro, scanning the samples between 3 and 35° […]. The material was gently ground and loaded onto a multi well plate with Kapton or mylar polymer film to support the sample. The multi well plate was then loaded into a Panalytical diffractometer running in transmission mode and analysed, using the following experimental conditions.
(§1) The selected Forms (5, 3 and 2) were fully characterized by PLM, XRPD, ^1H NMR and IR spectroscopy, DSC, TG/DTA, GVS (with post-GVS XRPD), Karl Fischer titration for water content and HPLC analysis for purity. All of these forms with the addition of Form 1 were also placed under a stress-stability test, at three different conditions for one week (ambient conditions, 40° C. and 75% relative humidity, 80° C.). In addition to this, an approximate solubility test was conducted on the different solid forms using a solvent addition method.
(§2) All four Forms (1, 2, 3 and 5) were placed under 7 day stress stability testing. This was carried out by placing the four forms under three different conditions for one week. Their physical stability was then analyzed by comparing the diffractograms and the chemical stability was checked by HPLC.

The nature of data set [2]: 7 day stress stability, chemical stability by HPLC. Particulars: for Chemical stability: 1 week stress test, conditions studied; for Sialic acid Area % (HPLC): two injections; for HPLC purity of recovered samples: after 1 week, all three conditions (ambient; 40° C./75% RH; 80° C.). As for the experimental part: The chemical purity was measured on an Agilent HP1100 HPLC system fitted with an Agilent variable wavelength UV detector. Samples were prepared by dissolving in diluent at a concentration of 1 mg/mL before being analysed under the following HPLC conditions:
as §1, §2

The nature of data set [3]: Gravimetric Vapour Sorption (GVS) with post-GVS XRPD. Conditions: for Polymorphic form after GVS (XRPD): material reclaimed after GVS run; for DVS, RH at which the form goes to form 1: relative humidity. How it is done: Approximately 10-20 mg of sample was placed into a mesh vapour sorption balance pan and loaded into an IGASorp Moisture Sorption Analyser balance by Hiden Analytical. The sample was subjected to a ramping profile from 40-90% relative humidity (RH) at 10% increments, maintaining the sample at each step until a stable weight had been achieved (98% step completion). After completion of the sorption cycle, the sample was dried using the same procedure to 0% RH, and finally taken back to the starting point of 40% RH. The weight change during the sorption/desorption cycles were plotted, allowing for the hygroscopic nature of the sample to be determined.

Data set [4] in a line: Differential Scanning Calorimetry (DSC). As for the experimental part:
Approximately, 5 mg of material was weighed into an aluminium DSC pan and sealed non-hermetically with a pierced aluminium lid. The sample pan was then loaded into a Seiko DSC6200 (equipped with a cooler) cooled and held at 25° C. Once a stable heat-flow response was obtained, the sample and reference were heated to 210° C. at a scan rate of 10° C./min and the resulting heat flow response monitored. Nitrogen was used as the purge gas, at a flow rate of 50 cm^3/min.
On the technique in general: In DSC, transitions show as peaks or steps in heat flow.

A short description of data set [5]: Approximate aqueous solubility of the solid forms (solvent addition method). Conditions: for Approximate solubility: aqueous; for Aqueous Solubility, Solubility in g/L: deionized water, approximate, solvent addition. As for the experimental part:
as §1
Approximately 50 mg of each form (1, 2, 3 and 5) was weighed into a 2 ml vial. 20 μl aliquots of deionized water was added to each vial until complete dissolution of the solid was observed. The volume was noted down and the approximate water solubility calculated.

The nature of data set [6]: HPLC-UV chemical purity. Particulars: summary Table 13. As for the experimental part:
The chemical purity was measured on an Agilent HP1100 HPLC system fitted with an Agilent variable wavelength UV detector. Samples were prepared by dissolving in diluent at a concentration of 1 mg/mL before being analysed under the following HPLC conditions: […]

The nature of data set [7]: PLM (morphology) of the solid forms. Particulars: for PLM (morphology): particle shape.
The nature of data set [8]: Thermogravimetric/Differential Thermal Analysis (TG/DTA). How it is done:
Approximately, 10 mg of material was weighed into an open aluminium pan and loaded into a simultaneous thermogravimetric/differential thermal analyser (TG/DTA) and held at room temperature. The sample was then heated at a rate of 10° C./min from 25° C. to 300° C. during which time the change in sample weight was recorded along with any differential thermal events (DTA). Nitrogen was used as the purge gas, at a flow rate of 300 cm^3/min.

[9] abbreviates: 1 week under ambient conditions.
Setting [10] is: after 1 week under 40° C., 75% RH.
[11] abbreviates: after 1 week under ambient conditions.
Setting [12] is: stability under ambient conditions.

On to `CC(=O)N[C@H]1[C@H]([C@H](O)[C@H](O)CO)OC(O)(C(=O)O)C[C@@H]1O` (some centres unmarked) [An embodiment of Form 2, N-acetylneuraminic acid], for which the “Physical form (XRPD) after stress” value in data set [1] (1 week at 40° C./75% RH) was “converts to Form 1”; in data set [1] (1 week at 80° C.) it was “stable”; in data set [1] (setting [9]), “mixture of Forms 1 and 2”. Also, the Chemical stability result in data set [2] is “good”. In addition, the “Hygroscopicity (GVS)” value in data set [3] was “slightly hygroscopic”. In addition, in data set [3] (RH>50%), the “GVS weight loss on sorption” value is “ca. 1.5%”. Further, the “Polymorphic form after GVS (XRPD)” value in data set [3] was “transformed to Form 1”.

For the compound `CC(=O)N[C@H]1[C@H]([C@H](O)[C@H](O)CO)OC(O)(C(=O)O)C[C@@H]1O` (some centres unmarked) [Form 2, N-acetylneuraminic acid], the “Physical form (XRPD) after stress” value in data set [1] (1 week at 40° C./75% RH) was “converts to Form 1”. In data set [1] (1 week at 80° C.), the “Physical form (XRPD) after stress” value is “stable”. The “Physical form (XRPD) after stress” value in data set [1] (setting [9]) is “stable”. The “Stability - XRPD post Stability” value in data set [1] (at 80° C.) was “Form 2 at 80 °C”. Moreover, in data set [1] (at RT), the “Stability - XRPD post Stability” value is recorded as “Form 1 + 2 at RT”. The “DSC (thermal events) Endotherm” value in data set [4] is listed as 181.0° ° C. Moreover, in data set [5], the Approximate solubility is 105.0 mg/mL and the “Aqueous Solubility, Solubility in g/L” value worked out at 105 g/L. The “HPLC (purity)” value in data set [6] was 99.70% and 99.80%. Also, in data set [7], the “PLM (morphology), particle size” value is reported as less than 30 μm and the “PLM (morphology)” value was “Small needles”. In data set [2], the Chemical stability entry is recorded as “good chemical stability” and the “HPLC purity of recovered samples” value was “higher than 99.4%”. Besides, the “Sialic acid Area % (HPLC)” value in data set [2] (setting [10]) is 99.405% and 99.360%. For the same compound, in data set [2] (after 1 week under 80° C.), the “Acetic acid Area % (HPLC)” value was 0.075% and 0.072%; the “Sodium Pyruvate Area % (HPLC)” value is 0.076% and 0.077%; the “Sialic acid Area % (HPLC)” value is 99.348% and 99.372%. The “Sialic acid Area % (HPLC)” value in data set [2] (setting [11]) was 99.561% and 99.605%. In data set [2] (stability under 40° C., 75% RH), the “Area % Acetic acid (HPLC)” value is 0.000%, the “Area % N-acetyl-D-glucosamine (HPLC)” value came to 0.000%, the “Area % N-acetyl-D-mannosamine (HPLC)” value is 0.000% and the “Area % Sodium Pyruvate (HPLC)” value is 0.000%. Moreover, in data set [2] (stability under 80° C.), the “Area % Acetic acid (HPLC)” value was 0.000%; the “Area % N-acetyl-D-glucosamine (HPLC)” value came out at 0.000%; the “Area % N-acetyl-D-mannosamine (HPLC)” value was found to be 0.000%; the “Area % Sialic acid (HPLC)” value is 99.601% and 99.566%. The “Area % Sodium Pyruvate (HPLC)” value in data set [2] (stability under 80° C.) is 0.000% and 0.044%. Also, in data set [2] (setting [12]), the “Area % Acetic acid (HPLC)” value amounted to 0.000%, the “Area % N-acetyl-D-glucosamine (HPLC)” value is given as 0.000%, the “Area % N-acetyl-D-mannosamine (HPLC)” value came to 0.000% and the “Area % Sodium Pyruvate (HPLC)” value is on record as 0.000%. For the same compound, in data set [3], the “DVS (hygroscopicity)” value is given as “Goes to form 1”, the “Hygroscopicity (GVS)” value is recorded as “slightly hygroscopic”, the “XRPD post DVS” value is recorded as “change” and the “Polymorphic form after GVS (XRPD)” value is reported as “converted to Form 1”. In addition, the “DVS, RH at which the form goes to form 1” value in data set [3] is “RH >50%”. The “TGA Decomposition temperature” value in data set [8] was “at 178.5 °C”.

For `CC(=O)N[C@H]1[C@H]([C@H](O)[C@H](O)CO)OC(O)(C(=O)O)C[C@@H]1O` (some centres unmarked) [Form 3, N-acetylneuraminic acid], the “Physical form (XRPD) after stress” value in data set [1] (1 week at 80° C.) was “to Form 2”. In addition, the “Stability as a physical form (XRPD)” value in data set [1] (1 week stress test, overall) is “not stable”. Also, in data set [1] (setting [9]), the “Physical form (XRPD) after stress” value is “converts to Form 2”. Moreover, the “Stability - XRPD post Stability” value in data set [1] (at 80° C.) is “Form 2 at 80 °C”. In addition, in data set [1] (at RT), the “Stability - XRPD post Stability” value is “Form 2 at RT”. Further, the “DSC (thermal events) Endotherm” value in data set [4] is 107° ° C. and 181.0° ° C. In addition, in data set [5], the Approximate solubility stood at 188.2 mg/mL and the “Aqueous Solubility, Solubility in g/L” value came out at 188.2 g/L. Besides, the “HPLC (purity)” value in data set [6] was 99.8%. In data set [7], the “PLM (morphology), particle size” value is given as less than 30 μm and the “PLM (morphology)” value is given as “Small needles”. In data set [2], the Chemical stability entry is “moderate chemical stability” and the “HPLC purity of recovered samples” value is “higher than 98%”. Moreover, in data set [2] (setting [10]), the “Sialic acid Area % (HPLC)” value is 98.011% and 98.031%. Also, in data set [2] (after 1 week under 80° C.), the “Sialic acid Area % (HPLC)” value is 99.526% and 99.523%. Also, in data set [2] (setting [11]), the “Sialic acid Area % (HPLC)” value is 99.684% and 99.715%. In data set [3], the “DVS (hygroscopicity)” value was “Goes to form 1”; the “XRPD post DVS” value is listed as “change”; the “Polymorphic form after GVS (XRPD)” value is on record as “converts to Form 1”; the “DVS, RH at which the form goes to form 1” value is recorded as “RH >50%”. Further, the “GVS weight loss (desolvation)” value in data set [3] (on increase of humidity) is on record as 16%. Further, in data set [8], the “TGA (weight loss)” value is reported as 15.3%, the “TGA Decomposition temperature” value is on record as 176.2° ° C and the “TGA temperature of the weight loss” value is given as “(80° C.)”.
